In brackets after ≈: the same amount, converted by molar mass. Where two headings read alike, the source gives them in different places.
Tests used:
Assay type in all cases: cell-based
Bacillus subtilis DSM10 = assay: MIC serial dilution assay; parameters: key: -: no inhibition observed under test conditions; settings: highest concentration 67 or 100 µg/mL
From the text: (§1) The minimum inhibitory concentration (MIC) for each compound was ascertained in a serial dilution assay in 96-well microtiter plates, as previously published by Kuhnert et al., using YM media for yeasts and filamentous fungi and BD^TM Difco™ Mueller Hinton Broth for bacteria.

Candida albicans DSM1665 = assay: MIC serial dilution assay; parameters: key: -: no inhibition observed under test conditions; settings: highest concentration 67 or 100 µg/mL
From the text: as §1

Candida tenuis MUCL29892 = assay: MIC serial dilution assay; parameters: key: -: no inhibition observed under test conditions; settings: highest concentration 67 or 100 µg/mL
From the text: as §1

[1] = system: Micrococcus luteus DSM1790; assay: MIC serial dilution assay; parameters: key: -: no inhibition observed under test conditions; settings: highest concentration 67 or 100 µg/mL
From the text: as §1

Mucor hiemalis DSM2656 = assay: MIC serial dilution assay; parameters: key: -: no inhibition observed under test conditions; settings: highest concentration 67 or 100 µg/mL
From the text: as §1

Mucor plumbeus MUCL49355 = assay: MIC serial dilution assay; parameters: key: -: no inhibition observed under test conditions; settings: highest concentration 67 or 100 µg/mL
From the text: as §1

Pichia anomala DSM6766 = assay: MIC serial dilution assay; parameters: key: -: no inhibition observed under test conditions; settings: highest concentration 67 or 100 µg/mL
From the text: as §1

[2] = system: Rhodotorula glutinis DSM10134; assay: MIC serial dilution assay; parameters: key: -: no inhibition observed under test conditions; settings: highest concentration 67 or 100 µg/mL
From the text: as §1

[3] = system: Staphylococcus aureus DSM346; assay: MIC serial dilution assay; parameters: key: -: no inhibition observed under test conditions; settings: highest concentration 67 or 100 µg/mL
From the text: as §1

[4] = system: cervix carcinoma cell line KB3.1; assay: In vitro cytotoxicity assay; settings: Homo sapiens, KB 3-1, 120 h, 6 × 10^3 cells/well, treated over five days
Procedure: (§2) In vitro cytotoxicity assay was performed as described by Richter et al. against the mouse fibroblast cell line L929 and the cervix carcinoma cell line KB3.1.

[5] = system: mouse fibroblast cell line L929; assay: In vitro cytotoxicity assay; settings: 120 h, 6 × 10^3 cells/well, treated over five days
Procedure: as §2

hepatitis C virus (HCV) = assay: Inhibitory effects on HCV infectivity (Renilla luciferase reporter virus in Huh-7.5 cells); settings: for activity in the HCV assay in vitro: Huh-7.5 host cells
Procedure: (§3) Figure 4 Antiviral activity of 4-hydroxypleurogrisin (11). NC-Negative control, EGCG-Positive control. HCV assay was performed in triplicates and is presented as the mean ± standard deviation. The asterisk indicates statistically significant differences (* p ≤ 0.05, ** p ≤ 0.01, *** p ≤ 0.001). Huh-7.5 cells were inoculated with RLuc-Jc1 reporter viruses in the presence of 4-hydroxypleurogrisein. The inoculum was removed 4 h later and monolayers were washed three times with PBS and overlaid with fresh medium containing no inhibitors. Infected cells were lysed three days later, and reporter virus infection was determined by renilla luciferase activity (top). The cell viability was measured by determination of firefly luciferase (bottom), which is stably expressed in the target cells.
This assay was carried out as described previously by Mulwa et al.. Huh7.5 cells stably expressing Firefly luciferase (Huh7.5 Fluc) were cultured in Dulbecco’s modified minimum essential medium (DMEM, Life Technologies, Darmstadt, Germany) containing 2 mM L glutamine, 1 × minimum essential medium nonessential amino acids (MEM NEAA, Life Technologies), 100 μg/mL streptomycin, 100 IU/mL penicillin (Life Technologies), 5 μg/mL blasticidin and 10% fetal bovine serum. Cells were maintained in a 37 °C environment with 5% CO2 supply. Cells were infected with Jc1-derived Renilla reporter viruses in the presence or absence of compounds as described previously. Infected cells were lysed and then frozen at −80 °C for 1 h following measurements of Renilla and Firefly luciferase activities on a Berthold Technologies Centro XS3 Microplate Luminometer (Bad Wildbad, Germany) as indicators of viral genome replication and cell viability, respectively.

Huh7.5 Fluc cells = assay: Cell viability in HCV assay (firefly luciferase); settings: at 20 ng/µL
Procedure: as §3
This assay was carried out as described previously by Mulwa et al.. Huh7.5 cells stably expressing Firefly luciferase (Huh7.5 Fluc) were cultured in Dulbecco’s modified minimum essential medium (DMEM, Life Technologies, Darmstadt, Germany) containing 2 mM L glutamine, 1 × minimum essential medium nonessential amino acids (MEM NEAA, Life Technologies), 100 μg/mL streptomycin, 100 IU/mL penicillin (Life Technologies), 5 μg/mL blasticidin and 10% fetal bovine serum. Cells were maintained in a 37 °C environment with 5% CO2 supply. […]

[6] = Yamadazyma tenuis, read-out: MIC
[7] = Hansenula anomala, read-out: MIC

| Compound | MIC (Bacillus subtilis DSM10; read-out: MIC) | MIC (Candida albicans DSM1665) | MIC (Candida tenuis MUCL29892; [6]) | MIC [1] | MIC ([3]; read-out: MIC) | IC50 [4] | IC50 [5] | MIC (Candida tenuis MUCL29892) | MIC (Mucor hiemalis DSM2656) | MIC (Mucor plumbeus MUCL49355) | MIC (Pichia anomala DSM6766) | MIC [2] | MIC [3] | also measured |
| --- | --- | --- | --- | --- | --- | --- | --- | --- | --- | --- | --- | --- | --- | --- |
| CC1COC2C3=C(CC4C(C(=O)O)CCC5C1CCC245)C(=O)C=CC3=O (stereo not drawn) [Compound 3, dihydropleurotinic acid, reference compound] | 100 µg/mL (≈ 281 µM) | - | 100 µg/mL (≈ 281 µM) | - | 66.7 µg/mL (≈ 187 µM) | 18 µg/mL (≈ 50.5 µM) | 18 µg/mL (≈ 50.5 µM) |  |  |  |  |  |  | MIC (Mucor hiemalis DSM2656; read-out: MIC): 16.7 µg/mL (≈ 46.9 µM); MIC (Mucor plumbeus MUCL49355; read-out: MIC): 100 µg/mL (≈ 281 µM); MIC (Pichia anomala DSM6766; [7]): 66.7 µg/mL (≈ 187 µM); MIC ([2]; read-out: MIC): 33.3 µg/mL (≈ 93.4 µM) |
| CN(C)[C@@H]1C(O)=C(C(N)=O)C(=O)[C@@]2(O)C(O)=C3C(=O)c4c(O)cccc4[C@@](C)(O)[C@H]3[C@H](O)[C@@H]12 [Oxytetracycline, reference compound] |  |  |  |  | 6.7 µg/mL (≈ 14.6 µM) |  |  |  |  |  |  |  |  | MIC ([1]; read-out: MIC): 0.4 µg/mL (≈ 0.869 µM) |
| C[C@@H]1CO[C@@H]2C3=C(C(=O)C=CC3=O)[C@@H](O)[C@H]3[C@H](C(=O)O)CC[C@H]4[C@@H]1CC[C@@]324 [Compound 6, 14-Hydroxy-dihydropleurotinic acid] |  | - |  | - |  | 22 µg/mL (≈ 59.1 µM) | 23 µg/mL (≈ 61.8 µM) | - | - | - | - | - | - | MIC (Bacillus subtilis DSM10): - |
| C[C@@H]1CO[C@@H]2c3c(O)ccc(O)c3C(=O)[C@H]3[C@H](C(=O)O)CC[C@H]4[C@@H]1CC[C@@]243 [Compound 8, 14-oxo-leucopleuotinic acid] | 50 µg/mL (≈ 134 µM) | - |  | - |  | 22 µg/mL (≈ 59.1 µM) | 22 µg/mL (≈ 59.1 µM) | - | - | - | - | - | - |  |
| C/C(=C\c1csc(C)n1)[C@@H]1C[C@@H]2O[C@]2(C)CCC[C@H](C)[C@H](O)[C@@H](C)C(=O)C(C)(C)[C@@H](O)CC(=O)O1 [Epothilone B, reference compound] |  |  |  |  |  | 3e-05 µg/mL (≈ 5.91e-05 µM) | 0.00062 µg/mL (≈ 0.00122 µM) |  |  |  |  |  |  |  |
| C=C1CO[C@@H]2c3c(O)ccc(O)c3[C@H]3OC(=O)[C@@H]4CC[C@H]5[C@@H]1CC[C@@]25[C@@H]34 [Compound 9, Nematoctone] |  | - | 25 µg/mL (≈ 70.5 µM) | - |  | 18 µg/mL (≈ 50.8 µM) | 21 µg/mL (≈ 59.3 µM) |  | - | - | - | - | - | MIC (Bacillus subtilis DSM10): - |
| C[C@H](CO)[C@H]1CC[C@]23C(=O)c4c(O)ccc(O)c4C(=O)[C@H]2[C@H](C(=O)O)CC[C@@H]13 [Compound 10, Di-oxo-leucopleurotinic acid] | 100 µg/mL (≈ 257 µM) | - |  | - |  | 22 µg/mL (≈ 56.6 µM) | 22 µg/mL (≈ 56.6 µM) | - | - | - | - | - | - |  |
| C[C@@H]1CO[C@@H]2c3c(O)ccc(O)c3[C@H]3OC(=O)[C@@H]4CC[C@H]5[C@@H]1CC[C@@]25[C@@H]34 [Compound 2, leucopleurotin, reference compound] | 25 µg/mL (≈ 70.1 µM) | - | 100 µg/mL (≈ 281 µM) |  | 33.3 µg/mL (≈ 93.4 µM) | 2.8 µg/mL (≈ 7.86 µM) | 2.2 µg/mL (≈ 6.17 µM) |  |  | - |  |  |  | MIC ([1]; read-out: MIC): 66.7 µg/mL (≈ 187 µM); MIC (Mucor hiemalis DSM2656; read-out: MIC): 33.3 µg/mL (≈ 93.4 µM); MIC (Pichia anomala DSM6766; [7]): 66.7 µg/mL (≈ 187 µM); MIC ([2]; read-out: MIC): 33.3 µg/mL (≈ 93.4 µM) |
| CC1COC2C3=C(CC4C(C(=O)O)CCC5C1(O)CCC245)C(=O)C=CC3=O (stereo not drawn) [Compound 5, 3-Hydroxy-dihydropleurotinic acid] | 100 µg/mL (≈ 269 µM) | - | 100 µg/mL (≈ 269 µM) | - |  | 22 µg/mL (≈ 59.1 µM) | 22 µg/mL (≈ 59.1 µM) |  | - | - | - |  | - | MIC ([2]; read-out: MIC): 33.3 µg/mL (≈ 89.4 µM); activity in the HCV assay in vitro (hepatitis C virus (HCV)): devoid of any activity |
| CC(C)(O)C1CCC23CC4=C(CC2C(O)(CO)CCC13)C(=O)C=CC4=O (stereo not drawn) [Compound 11, 4-Hydroxypleurogrisein] | 50 µg/mL (≈ 139 µM) | - |  |  | 33.3 µg/mL (≈ 92.4 µM) | 7.5 µg/mL (≈ 20.8 µM) | 6.9 µg/mL (≈ 19.1 µM) | - | - | - | - | - |  | MIC ([1]; read-out: MIC): 66.7 µg/mL (≈ 185 µM); IC50 (hepatitis C virus (HCV); Hepatitis C virus, Huh7.5, read-out: IC50 of HCV infectivity): ~5 µg/mL (≈ 13.9 µM); activity in the HCV assay in vitro (hepatitis C virus (HCV)): significant activities in vitro; inhibitory effect on HCV infectivity (hepatitis C virus (HCV); at 10 ng/µL): strong inhibitory effect; cytotoxic effects (cell viability, firefly luciferase) (Huh7.5 Fluc cells): cytotoxic effects were noted |
| C[C@@H]1[C@H](O)[C@@H](C)/C=C/C=C/CC/C=C/C=C/C=C/C=C/C(O[C@H]2O[C@H](C)[C@@H](O)[C@H](N)[C@@H]2O)CC2O[C@](O)(CC(O)C(O)CCC(O)CC(O)CC(O)CC(=O)O[C@H]1C)CC(O)C2C(=O)O (stereo partly drawn) [Nystatin, reference compound] |  | Nystatin (16.7) µg/mL |  |  |  |  |  | Nystatin (12.5) µg/mL | Nystatin (16.7) µg/mL | Nystatin (12.5) µg/mL | Nystatin (16.7) µg/mL | Nystatin (16.7) µg/mL |  |  |
| C[C@@H]1CO[C@@H]2c3c(O)ccc(O)c3C[C@H]3[C@H](C(=O)O)CC[C@H]4[C@@H]1CC[C@@]243 [Compound 7, Leucopleurotinic acid] |  | - |  | - |  | 20 µg/mL (≈ 55.8 µM) | 17 µg/mL (≈ 47.4 µM) | - | - | - | - | - | - | MIC (Bacillus subtilis DSM10): - |
| C[C@@H]1CO[C@@H]2C3=C(C(=O)C=CC3=O)[C@H]3OC(=O)[C@@H]4CC[C@H]5[C@@H]1CC[C@@]25[C@@H]34 [Compound 1, pleurotin] | 50 µg/mL (≈ 141 µM) |  | 25 µg/mL (≈ 70.5 µM) |  | 33.3 µg/mL (≈ 94 µM) | 8.5 µg/mL (≈ 24 µM) | 7.5 µg/mL (≈ 21.2 µM) |  |  |  |  |  |  | MIC (Candida albicans DSM1665; read-out: MIC): 33.3 µg/mL (≈ 94 µM); MIC ([1]; read-out: MIC): 66.7 µg/mL (≈ 188 µM); MIC (Mucor hiemalis DSM2656; read-out: MIC): 8.3 µg/mL (≈ 23.4 µM); MIC (Mucor plumbeus MUCL49355; read-out: MIC): 100 µg/mL (≈ 282 µM); MIC (Pichia anomala DSM6766; [7]): 66.7 µg/mL (≈ 188 µM); MIC ([2]; read-out: MIC): 16.7 µg/mL (≈ 47.1 µM) |
| Penicillin [reference compound] |  |  |  |  |  |  |  |  |  |  |  |  |  | MIC (Bacillus subtilis DSM10): Penicillin (6.3) µg/mL |
